The values below come from patent US7572459B2, “Anionic or cationic dendrimer antimicrobial or antiparasitic compositions” (Starpharma Pty Ltd., priority 1998, dated 2009).

The format of this series is cell-based. The text has this:
• II The following assay results were obtained in an in vitro assay to test for inhibition of Trypanosoma (T) and Plasmodium (P) species.
For the substance “BHAlys31lys32(NHCSNHPhOP[O] [ONa]2)64 [BRI6181]”, the “Cytotoxicity MIC” value is greater than 100 µg/mL.
To “PAMAM 4.0 EDA(NHCSNH SaccharinNa)32 [BRI6157]” belongs greater than 100 µg/mL; to “PAMAM 4.0 EDA(NHCSNH-3,5 Ph [COOH]2)32 [BRI6195]”, greater than 100 µg/mL.
